Series [1] relates to isolated guinea pig ileum. Nature of the series: Contractile effects of the test compounds in isolated guinea pig ileum. Set-up: species or system guinea pig (male Hartley). The note with it: for EC50: Cavia porcellus, isolated ileum strips, 37° C, relative to 10^-6 M acetylcholine-induced contraction, read-out: ED50 (dose which evoked 50% of the acetylcholine-induced contraction). Here is the method: Contractile effects of the test compounds in isolated guinea pig ileum
Male Hartley guinea-pigs weighing about 450 g were sacrificed and the ileum was excised. Then intact strips 1.5-2.0 cm long were prepared. These preparations were suspended vertically in an organ bath filled with Krebs-Henseleit's solution at 37° C. which was gassed with 95% O2 and 5% CO2. Rhythmic contractions of the preparations were isotonically measured. Effects of the test compounds were assessed as the relative percentage of a test compound against 10^-6 M acetylcholine-induced contractions. Results were as follows (Table 1).
*The dose which evoked 50% of the acetylcholineinduced contraction.

Series [2] in a line: Acute toxicological study in mice (up and down method). Particulars: mouse, in vivo; intravenous, male ICR mice aged 5 weeks. On the procedure: Acute toxicological study in mice
Male ICR mice aged 5 weeks were used for each determination. The test compounds (2-4 different doses) were intravenously administered and LD50 values were calculated using the up and down method. Results were as follows (Table 3).

Series [3] deals with dopamine-induced suppression of gastrointestinal transit. Nature of the series: Improving effects on dopamine-induced suppression of gastrointestinal transit in mice (charcoal meal). It is filed as in vivo, mice (male ddY). Particulars: for Improvement (%) / Gastrointestinal transit (% ± S.E.): test compound 30 mg/kg p.o. + dopamine 2 mg/kg i.p.; for Gastrointestinal transit (% ± S.E.): 20 min after charcoal meal; for improvement of gastrointestinal transit inhibited by dopamine (in words): 30 mg/kg p.o. Here is the method: Improving effects of the test compound on dopamine-induced suppression of gastrointestinal transit in mice
Male mice of the ddY strain weighing about 22 g were fasted overnight and the test compounds (suspended in 0.5% carboxymethylcellulose) were administered orally. Thirty minutes later dopamine (2 mg/kg dissolved in saline) or saline only was administered intraperitoneally followed immediately by the oral administration of charcoal meal (5% charcoal powder suspended in 10% gum arabic). Twenty minutes later the animals were sacrificed and the digestive tracts were isolated from the stomach to the cecum. The gastrointestinal transit was determined by calculating the total intestinal length between the pylorus and the cecum and the length over which charcoal meal was carried from the pylorus. Statistical analysis was carried out by Student's t-test for unpaired observations.

Series [4] concerns apomorphine-induced emesis. Nature of the series: Suppressing effects on apomorphine-induced emesis in beagle dogs. The note with it: apomorphine s.c., observed for sixty minutes. In kind it is in vivo, beagle dogs (male). On the procedure:
Suppressing effects of the test compounds on apomorphine-induced emesis in beagle dogs
Male beagle dogs weighing about 8 kg were fasted overnight. The test compounds (suspended or dissolved in 0.5% CMC) were administered orally and the dogs fed fortyfive minutes later.

Values joined by “and” are separate entries in the source; they are usually repeats but may differ in a detail not shown here. Identical values can stand only once. Counter-ions that a name gives are not always drawn.

In general, LD50 refers to the dose at which mortality reaches 50%.

For `CN(C)CCOc1ccc(CNC(=O)c2ccc(Cl)c(S(=O)(=O)N(C)C)c2)cc1` [Compound 39], the EC50 in series [1] came out at 390 nM.

For `COc1cccc(C(=O)NCc2ccc(OCCN(C)C)cc2)c1` [Compound 23], the EC50 in series [1] came to 300 nM. The LD50 in series [2] came to 74.1 mg/kg. As to `COc1ccc(S(=O)(=O)N(C)C)cc1C(=O)NCc1ccc(OCCN(C)C)cc1` [Compound 7, N-[4-[2-(Dimethylamino)ethoxy]benzyl]-5-dimethylaminosulfonyl 2-methoxybenzamide], the EC50 in series [1] amounted to 300 nM. On to `CN(C)S(=O)(=O)c1cc(C(=O)NCc2ccc(OCCN3CCCC3)cc2)ccc1Cl` [Compound 40], for which the EC50 in series [1] amounted to 600 nM. With `COc1ccc(C(=O)NCc2ccc(OCCN3CCCCC3)cc2)cc1OC` [Compound 19], the EC50 in series [1] was 420 nM. Moreover, the LD50 in series [2] is 70.8 mg/kg. As to `N#Cc1ccc(C(=O)NCc2ccc(OCCN3CCCC3)cc2)cc1` [Compound 57], in series [1], the EC50 came to 930 nM. Consider `CN(C)CCOc1ccc(CNC(=O)c2ccc(Cl)cc2Cl)cc1` [Compound 59], for which, in series [1], the EC50 amounted to 620 nM. As for `CN(C)CCOc1ccc(CNC(=O)c2ccc(S(N)(=O)=O)cc2)cc1` [Compound 8, N-[4-[2-(Dimethylamino)ethoxy]benzyl]-4-sulfamoylbenzamide], the EC50 in series [1] came out at 1600 nM. In addition, the median lethal dose (LD50) in series [2] stood at 85.1 mg/kg. In the same order, the values of `Cc1ccc(C(=O)NCc2ccc(OCCN(C)C)cc2)cc1` [Compound 48] are 510 nM and 83.2 mg/kg.

In the case of `COc1cc(N)c(Cl)cc1C(=O)NCc1ccc(OCCN(C)C)cc1` [Compound 5, 4-Amino-5-chloro-N-[4-[2-(dimethylamino)ethoxy]benzyl]-2-methoxybenzamide], in series [1], the EC50 turned out to be 180 nM. Further, the LD50 in series [2] is 94 mg/kg. With `O=C(NCc1ccc(OCCN2CCCC2)cc1)c1ccc2c(c1)OCO2` [Compound 3, 3,4-Methylenedioxy-N-[4-[2-(1-pyrrolidinyl)ethoxy]benzyl]benzamide], in series [3], the “Improvement (%)” value stood at 56.9% and the “Gastrointestinal transit (% ± S.E.)” value is 44.0 ± 4.7%. In addition, the EC50 in series [1] came out at 460 nM. Besides, in series [2], the LD50 worked out at 62.6 mg/kg. With `COc1cc(N)c(Cl)cc1C(=O)NCc1ccc(OCCN2CCCC2)cc1` [Compound 34, 4-amino-5-chloro-2-methoxy-N-[4-[2-(1-pyrrolidinyl)ethoxy]benzyl] benzamide], in series [3], the “Improvement (%)” value came out at 63.4% and the “Gastrointestinal transit (% ± S.E.)” value turned out to be 46.6 ± 3.4%. In series [1], the EC50 is 120 nM. In series [2], this molecule displayed an LD50 of 44.7 mg/kg.

Take `COc1ccc(S(N)(=O)=O)cc1C(=O)NCc1ccc(OCCN2CCCCC2)cc1` [Compound 38]: the EC50 in series [1] was 350 nM. `Cc1ccc(C(=O)NCc2ccc(OCCN3CCCC3)cc2)cc1` [Compound 56]: the EC50 in series [1] came to 320 nM. Take `CNS(=O)(=O)c1ccc(OC)c(C(=O)NCc2ccc(OCCN(C)C)cc2)c1` [Compound 36]: the EC50 in series [1] stood at 340 nM. On to `COc1cc(N)c(Cl)cc1C(=O)NCc1ccc(OCCN2CCCCC2)cc1` [Compound 35], for which the EC50 in series [1] turned out to be 490 nM. In series [2], this molecule returned an LD50 of 61.7 mg/kg. In the case of `CCOc1ccc(C(=O)NCc2ccc(OCCN(C)C)cc2)cc1OCC` [Compound 32], in series [1], the EC50 was determined as 140 nM. Further, the LD50 in series [2] was 112 mg/kg. Take `CN(C)CCOc1ccc(CNC(=O)c2ccc([N+](=O)[O-])cc2)cc1` [Compound 52]: the EC50 in series [1] turned out to be 450 nM. For the molecule `COc1ccc(C(=O)NCc2ccc(OCCN(C)C)cc2)cc1OC.Cl` [Compound 2, N-[4-[2-(Dimethylamino)ethoxy]benzyl]-3,4-dimethoxybenzamide hydrochloride], in series [3], the “Improvement (%)” value was 56.5% and the “Gastrointestinal transit (% ± S.E.)” value is 43.9 ± 2.8%. Besides, the EC50 in series [1] is 600 nM. The “times stronger contractile effect than metoclopramide.HCl” value in series [1] (isolated guinea pig ileum, compared with metoclopramide.HCl) is on record as “about 10 times”. For the same molecule, in series [1] (isolated guinea pig ileum, compared with trimethobenzamide.HCl), the “times stronger contractile effect than trimethobenzamide.HCl” value is on record as “about 2.5 times”. In series [2], this molecule registered an LD50 of 191 mg/kg. Also, the antiemetic effect entry in series [4] (30 mg/kg p.o.) is “slight antiemetic effect”. In the case of `COc1ccc(C(=O)NCc2ccc(OCCN3CCCC3)cc2)cc1OC` [Compound 18, 3,4-Dimethoxy-N-[4-[2-(1-pyrrolidinyl)ethoxy]benzyl]benzamide], in series [3], the “Improvement (%)” value is given as 71.7% and the “Gastrointestinal transit (% ± S.E.)” value came out at 43.0 ± 6.5%. With `CN(C)CCOc1ccc(CNC(=O)c2ccc(N(C)C)cc2)cc1` [Compound 55], the EC50 in series [1] came to 1300 nM. Consider `CN(C)CCOc1ccc(CNC(=O)c2cccc(Cl)c2)cc1` [Compound 45], for which the EC50 in series [1] amounted to 4600 nM. For `COc1cc(OC)cc(C(=O)NCc2ccc(OCCN(C)C)cc2)c1` [Compound 14], the EC50 in series [1] amounted to 690 nM. On to `CCN(CC)CCNC(=O)c1cc(Cl)c(N)cc1OC` [Metoclopramide HCl, 4-Amino-5-chloro-N-[(2-diethylamino)ethyl]-2-methoxybenzamide], for which, in series [3], the “improvement of gastrointestinal transit inhibited by dopamine (in words)” value is listed as “did not so only to a much lesser extent”, the “Improvement (%)” value came to 27.1% and the “Gastrointestinal transit (% ± S.E.)” value is given as 37.2 ± 3.2%. For the same molecule, the EC50 in series [1] came out at 6300 nM. Also, in series [4] (1 mg/kg p.o.), the antiemetic effect entry is reported as “significant antiemetic effect”.

With `CCOc1ccc(C(=O)NCc2ccc(OCCN(C)C)cc2)cc1` [Compound 25], the EC50 in series [1] was 680 nM. In series [2], the LD50 was 87.1 mg/kg. Turning to `CN(C)CCOc1ccc(CNC(=O)c2ccc(C#N)cc2)cc1` [Compound 53], the EC50 in series [1] was found to be 460 nM. The same molecule had an LD50 in series [2] of 77.6 mg/kg. `NCCc1ccc(O)c(O)c1` [Dopamine, dopamine]: the “Gastrointestinal transit (% ± S.E.), dopamine alone” value in series [3] (dopamine alone 2 mg/kg i.p., no test compound (model control group)) is 25.0 ± 3.4% and 35.9 ± 2.1% and 32.9 ± 3.1% and 32.1 ± 2.0% and 31.7 ± 3.2%.

On to `O=C(NCc1ccc(OCCN2CCCC2)cc1)c1cccc([N+](=O)[O-])c1` [Compound 58], for which the EC50 in series [1] worked out at 420 nM. Take `Cc1cccc(C(=O)NCc2ccc(OCCN(C)C)cc2)c1` [Compound 47]: the EC50 in series [1] was 3000 nM. Moreover, in series [2], the LD50 turned out to be 68.5 mg/kg.

As to `COc1ccc(S(N)(=O)=O)cc1C(=O)NCc1ccc(OCCN2CCCC2)cc1` [Compound 37], in series [1], the EC50 came out at 180 nM. Consider `CN(C)CCOc1ccc(CNC(=O)c2ccccc2)cc1` [Compound 20], for which, in series [1], the EC50 was 500 nM. Consider `COc1ccc(C(=O)NCc2ccc(OCCN(C)C)cc2)cc1` [Compound 24], for which the EC50 in series [1] came to 610 nM. Take `COc1cc(C(=O)NCc2ccc(OCCN(C)C)cc2)cc(OC)c1OC` [Trimethobenzamide HCl, N-[4-[2-(dimethylamino)ethoxy]benzyl]-3,4,5-trimethoxybenzamide]: in series [3], the “improvement of gastrointestinal transit inhibited by dopamine (in words)” value is “did not so only to a much lesser extent”, the “Improvement (%)” value worked out at 32.4% and the “Gastrointestinal transit (% ± S.E.)” value is recorded as 38.2 ± 3.8%. In series [1], the EC50 is 1500 nM. For the same molecule, the antiemetic effect entry in series [4] (30 mg/kg p.o.) is listed as “significant antiemetic effect”. In the case of `Cc1cc(C(=O)NCc2ccc(OCCN(C)C)cc2)ccc1[N+](=O)[O-]` [Compound 62], the EC50 in series [1] was 390 nM. `CCOc1ccc(C(=O)NCc2ccc(OCCN(C)C)cc2)cc1OC` [Compound 31, N-[4-[2-(dimethylamino)ethoxy]benzyl]-4-ethoxy-3-methoxybenzamide]: in series [3], the “Improvement (%)” value was 58.5% and the “Gastrointestinal transit (% ± S.E.)” value was 45.2 ± 3.0%. For the same molecule, the EC50 in series [1] was 420 nM. The LD50 in series [2] amounted to 105 mg/kg. Take `CNS(=O)(=O)c1ccc(OC)c(C(=O)NCc2ccc(OCCN3CCCC3)cc2)c1` [Compound 43]: the EC50 in series [1] is less than 100 nM. As to `Cc1cc(C(=O)NCc2ccc(OCCN3CCCC3)cc2)ccc1[N+](=O)[O-]` [Compound 63], the EC50 in series [1] was 500 nM. As for `CN(C)CCOc1ccc(CNC(=O)c2cccc([N+](=O)[O-])c2)cc1` [Compound 51], the EC50 in series [1] came out at 610 nM. The LD50 in series [2] was found to be 85.9 mg/kg. Turning to `COc1cc(N)c(S(N)(=O)=O)cc1C(=O)NCc1ccc(OCCN(C)C)cc1` [Compound 41], the EC50 in series [1] is 130 nM. `COc1ccc(S(N)(=O)=O)cc1C(=O)NCc1ccc(OCCN(C)C)cc1` [Compound 6, N-[4-[2-(Dimethylamino)ethoxy]benzyl]-2-methoxy-5-sulfamoylbenzamide]: in series [1], the EC50 came to 400 nM. In series [2], this molecule gave an LD50 of 39.2 mg/kg.
